Test results published in patent US8389724B2, “Crystalline salt forms of a 5,6,7,8-tetrahydro-1,2,4-triazolo[4,3-a]pyrazine derivative” (Corporacion Medichem, S.L., priority 2008, dated 2013).
Counter-ions that a name gives are not always drawn. Like-named read-outs stand apart in the source and are kept apart here.

Assays:
[1] = Stability studies of sitagliptin salts (10 months storage; HPLC, XRD, visual inspection); type: physicochemical; settings: for Purity (HPLC) 10 months later / Aspect/Colour 10 months later / XRD analysis 10 months later: stored 10 months at room temperature, normal pressure, ambient atmosphere; for Aspect/Colour 10 months later: visual inspection; for Stability in terms of polymorphic form: after ten months of storage; for XRD analysis 10 months later: initial XRD Form I
Method: The XRD diffractograms were obtained using a RX SIEMENS D5000 diffractometer with a vertical goniometer, a copper anodic tube, and radiation CuKα, λ=1.54056.
Mobile phase A was a mixture of methanol and 5 mM dibasic sodium phosphate buffer, pH=7.0 (70:30, v/v). The buffer was prepared by dissolving 0.217 g of dibasic sodium phosphate in 300 mL of water and adjusting the pH of the solution to 7.0±0.1 with phosphoric acid, and filtered through a 0.22 μm nylon membrane under vacuum. Mobile phase B was methanol.
The following gradient was used: […]
The samples were analyzed after 10 months by HPLC, XRD, and visual inspection.

[2] = room temperature
[3] = listed as sitagliptin ethanedisulfonate Form I
[4] = listed as sitagliptin galactarate Form I

Purity (HPLC) 10 months later [1] [%] | Compound | Aspect/Colour 10 months later [1] | XRD analysis 10 months later [1] | other results
98.91 | sitagliptin hemi-L-malate |  |  | 
95.95 | sitagliptin oxalate | white | Form I | 
98.90 | sitagliptin acetate | off-white |  | 
98.88 | sitagliptin succinate | off-white |  | 
96.29 | NC(CC(=O)N1CCn2c(nnc2C(F)(F)F)C1)Cc1cc(F)c(F)cc1F.O=C(O)C(O)C(O)C(O)C(O)CO [D-Gluconate, sitagliptin D-gluconate] | beige |  | 
98.64 | sitagliptin (S)-pyroglutamate | off-white |  | 

Compound | Purity (HPLC) 10 months later [1] [%] | Aspect/Colour 10 months later [1] | XRD analysis 10 months later [1] | other results
N[C@@H](CC(=O)N1CCn2c(nnc2C(F)(F)F)C1)Cc1cc(F)c(F)cc1F.N[C@@H](CC(=O)O)C(=O)O [L-aspartate, sitagliptin L-aspartate] | 97.14 | white |  | 
N[C@@H](CC(=O)N1CCn2c(nnc2C(F)(F)F)C1)Cc1cc(F)c(F)cc1F.O=S(=O)(O)CCS(=O)(=O)O [Ethane-disulfonate, sitagliptin ethanedisulfonate] | 99.83 | off-white | Form I | Stability in terms of polymorphic form [1]: highly stable; Purity (HPLC) 10 months later [1, 3]: higher than 99.8%; Descriptive term (solubility in water) [2]: Freely soluble; Descriptive term (solubility in water) [2, 3]: freely soluble
N[C@@H](CC(=O)N1CCn2c(nnc2C(F)(F)F)C1)Cc1cc(F)c(F)cc1F.O=C(O)[C@@H](O)[C@H](O)[C@H](O)[C@@H](O)C(=O)O [Galactarate, sitagliptin galactarate] | 99.15 | off-white | Form I | Stability in terms of polymorphic form [1]: highly stable; Purity (HPLC) 10 months later [1, 4]: higher than 99.1%; Descriptive term (solubility in water) [2]: Sparingly soluble; Descriptive term (solubility in water) [2, 4]: sparingly soluble
N[C@@H](CC(=O)N1CCn2c(nnc2C(F)(F)F)C1)Cc1cc(F)c(F)cc1F [Hydrobromide, sitagliptin hydrobromide] | 98.92 | off-white | Form I | 
N#CS.N[C@@H](CC(=O)N1CCn2c(nnc2C(F)(F)F)C1)Cc1cc(F)c(F)cc1F [Thiocyanate, sitagliptin thiocyanate] | 99.22 | light pink | Form I | Stability in terms of polymorphic form [1]: highly stable; Purity (HPLC) 10 months later ([1]; listed as sitagliptin thiocyanate Form I): higher than 99.2%
